Experimental data taken from ChEMBL document CHEMBL5303573, “Mapping human microbiome drug metabolism by gut bacteria and their genes” (Nature, 2019).

Tests used:
[1] = target: T1, Nitroreductase domain-containing protein (Phocaeicola dorei, UniProt B6W3P3); test: The drug is tested on Bacteroides dorei strain: DSM17855 for biotransformation. The drug concentrations were measured before and after a 12-h incubation by liquid-chromatography-coupled mass spectrometry (LC–MS); type: ADME; set-up: dose 2 uM; details: 2 µM
T1 sequence (B6W3P3 whole entry): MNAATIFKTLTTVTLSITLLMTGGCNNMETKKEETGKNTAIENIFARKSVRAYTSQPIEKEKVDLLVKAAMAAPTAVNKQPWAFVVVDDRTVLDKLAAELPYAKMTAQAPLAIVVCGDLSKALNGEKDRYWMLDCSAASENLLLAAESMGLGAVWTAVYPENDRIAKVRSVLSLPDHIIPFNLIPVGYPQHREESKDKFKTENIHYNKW

Lipase = target: T2, Lipase (Bacteroides thetaiotaomicron, UniProt Q8A3J3); test: (§1) The drug is tested on Bacteroides thetaiotaomicron strain: VPI-5482 for biotransformation. The drug concentrations were measured before and after a 12-h incubation by liquid-chromatography-coupled mass spectrometry (LC–MS); type: ADME; set-up: dose 2 uM; details: 2 µM
T2 sequence (Q8A3J3 whole entry): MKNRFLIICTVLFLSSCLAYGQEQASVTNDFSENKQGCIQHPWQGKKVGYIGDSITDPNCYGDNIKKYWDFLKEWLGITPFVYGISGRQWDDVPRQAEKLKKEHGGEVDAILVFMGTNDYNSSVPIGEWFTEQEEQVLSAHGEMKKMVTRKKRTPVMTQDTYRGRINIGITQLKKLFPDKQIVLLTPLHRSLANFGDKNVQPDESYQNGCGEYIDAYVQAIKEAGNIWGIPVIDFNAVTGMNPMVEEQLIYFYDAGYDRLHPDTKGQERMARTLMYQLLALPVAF

[2] = target: T3, Sialic acid-specific 9-O-acetylesterase (Bacteroides thetaiotaomicron, UniProt Q8A0D0); test: as §1; type: ADME; set-up: dose 2 uM; details: 2 µM
T3 sequence (Q8A0D0 whole entry): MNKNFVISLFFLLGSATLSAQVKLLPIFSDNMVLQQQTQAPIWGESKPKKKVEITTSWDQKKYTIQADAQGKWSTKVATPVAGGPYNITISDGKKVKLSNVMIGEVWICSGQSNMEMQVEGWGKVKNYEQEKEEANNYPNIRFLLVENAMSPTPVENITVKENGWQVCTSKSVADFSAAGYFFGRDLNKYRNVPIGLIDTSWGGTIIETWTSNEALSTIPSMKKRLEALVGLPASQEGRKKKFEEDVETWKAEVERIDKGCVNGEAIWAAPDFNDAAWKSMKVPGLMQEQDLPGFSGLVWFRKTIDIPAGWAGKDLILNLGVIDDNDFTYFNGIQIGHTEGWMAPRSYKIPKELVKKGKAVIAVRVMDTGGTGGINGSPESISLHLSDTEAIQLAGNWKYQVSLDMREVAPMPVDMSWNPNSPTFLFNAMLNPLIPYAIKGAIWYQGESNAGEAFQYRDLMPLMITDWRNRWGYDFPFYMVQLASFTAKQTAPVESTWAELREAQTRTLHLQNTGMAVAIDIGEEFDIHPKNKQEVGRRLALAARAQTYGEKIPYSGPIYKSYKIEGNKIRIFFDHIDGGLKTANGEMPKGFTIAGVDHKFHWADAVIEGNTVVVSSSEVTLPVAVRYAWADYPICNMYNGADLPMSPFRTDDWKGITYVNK

[3] = target: T4, Sialic acid-specific acetylesterase (Bacteroides thetaiotaomicron, UniProt Q8A331); test: as §1; type: ADME; set-up: dose 2 uM; details: 2 µM
T4 sequence (Q8A331 whole entry): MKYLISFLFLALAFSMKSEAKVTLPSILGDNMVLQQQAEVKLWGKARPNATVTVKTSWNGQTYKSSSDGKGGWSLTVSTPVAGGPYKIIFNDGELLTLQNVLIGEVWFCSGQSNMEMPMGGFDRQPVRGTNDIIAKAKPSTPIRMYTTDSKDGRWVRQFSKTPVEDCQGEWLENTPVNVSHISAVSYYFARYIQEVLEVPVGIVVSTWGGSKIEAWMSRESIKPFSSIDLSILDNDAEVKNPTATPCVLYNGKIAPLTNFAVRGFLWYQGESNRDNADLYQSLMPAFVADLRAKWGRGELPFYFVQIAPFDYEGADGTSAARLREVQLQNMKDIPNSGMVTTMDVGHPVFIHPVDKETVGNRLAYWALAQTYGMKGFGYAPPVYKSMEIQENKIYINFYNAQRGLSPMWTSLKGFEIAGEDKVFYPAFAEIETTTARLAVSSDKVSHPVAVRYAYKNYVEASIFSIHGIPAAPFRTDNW

[4] = (§2) The drug is tested on the gut metagenome community of MV03 with ENA study accession number: PRJEB31790 and ENA sample accession number: SAMEA5537484 for biotransformation. The drug concentrations were measured over 9 timepoints collected between 0 and 24 hours of incubation by liquid-chromatography-coupled mass spectrometry (LC–MS); type: ADME; set-up: dose 2 uM, timepoint 0, 1, 2, 4, 6, 8, 12, 18, 24 hours; details: 2 µM
[5] = as §2, with “MV04” for “MV03”, “SAMEA5537485” for “SAMEA5537484”; type: ADME; set-up: dose 2 uM, timepoint 0, 1, 2, 4, 6, 8, 12, 18, 24 hours; details: 2 µM
[6] = as §2, with “MV05” for “MV03”, “SAMEA5537486” for “SAMEA5537484”; type: ADME; set-up: dose 2 uM, timepoint 0, 1, 2, 4, 6, 8, 12, 18, 24 hours; details: 2 µM
[7] = as §2, with “MV06” for “MV03”, “SAMEA5537487” for “SAMEA5537484”; type: ADME; set-up: dose 2 uM, timepoint 0, 1, 2, 4, 6, 8, 12, 18, 24 hours; details: 2 µM
[8] = as §2, with “MV09” for “MV03”, “SAMEA5537490” for “SAMEA5537484”; type: ADME; set-up: dose 2 uM, timepoint 0, 1, 2, 4, 6, 8, 12, 18, 24 hours; details: 2 µM
[9] = as §2, with “MV16” for “MV03”, “SAMEA5537497” for “SAMEA5537484”; type: ADME; set-up: dose 2 uM, timepoint 0, 1, 2, 4, 6, 8, 12, 18, 24 hours; details: 2 µM
[10] = as §2, with “MV17” for “MV03”, “SAMEA5537498” for “SAMEA5537484”; type: ADME; set-up: dose 2 uM, timepoint 0, 1, 2, 4, 6, 8, 12, 18, 24 hours; details: 2 µM
[11] = as §2, with “MV19” for “MV03”, “SAMEA5537500” for “SAMEA5537484”; type: ADME; set-up: dose 2 uM, timepoint 0, 1, 2, 4, 6, 8, 12, 18, 24 hours; details: 2 µM
[12] = as §2, with “MV21” for “MV03”, “SAMEA5537502” for “SAMEA5537484”; type: ADME; set-up: dose 2 uM, timepoint 0, 1, 2, 4, 6, 8, 12, 18, 24 hours; details: 2 µM
[13] = as §2, with “MV28” for “MV03”, “SAMEA5537509” for “SAMEA5537484”; type: ADME; set-up: dose 2 uM, timepoint 0, 1, 2, 4, 6, 8, 12, 18, 24 hours; details: 2 µM
[14] = The drug is tested on Providencia alcalifaciens strain: DSM30120 for biotransformation. The drug concentrations were measured before and after a 12-h incubation by liquid-chromatography-coupled mass spectrometry (LC–MS); details: 2 µM
[15] = The drug is tested on Bacteroides fragilis strain: T(B)9 for biotransformation. The drug concentrations were measured before and after a 12-h incubation by liquid-chromatography-coupled mass spectrometry (LC–MS); details: 2 µM
[16] = The drug is tested on Salmonella typhimurium strain: LT2 for biotransformation. The drug concentrations were measured before and after a 12-h incubation by liquid-chromatography-coupled mass spectrometry (LC–MS); details: salmonella enterica subsp. enterica, 2 µM

Compound	Bacterial Biotransformation [1]	Bacterial Biotransformation (Lipase)	Bacterial Biotransformation [2]	Bacterial Biotransformation [3]	Bacterial Biotransformation [14]	Bacterial Biotransformation [15]	Bacterial Biotransformation [16]	also measured
CC(=O)OCC(=O)[C@@]1(OC(C)=O)[C@@H](C)C[C@H]2[C@@H]3C[C@H](F)C4=CC(=O)C=C[C@]4(C)[C@@]3(F)[C@@H](O)C[C@@]21C [DIFLORASONE DIACETATE]	Compound NOT metabolized	–	–	–	–	–	–	–
C#C[C@]1(O)CC[C@H]2[C@@H]3CCC4=CC(=O)CC[C@@H]4[C@H]3CC[C@@]21CC [LEVONORGESTREL]	Compound NOT metabolized	Compound NOT metabolized	Compound NOT metabolized	Compound NOT metabolized	–	–	–	–
COc1ccc([C@@H]2Sc3ccccc3N(CCN(C)C)C(=O)[C@@H]2OC(C)=O)cc1 [DILTIAZEM]	Compound NOT metabolized	Compound NOT metabolized	Compound NOT metabolized	Compound NOT metabolized	–	–	–	Bacterial Biotransformation [4]: Compound NOT metabolized; Bacterial Biotransformation [5]: Compound NOT metabolized; Bacterial Biotransformation [6]: Compound NOT metabolized; Bacterial Biotransformation [7]: Compound NOT metabolized; Bacterial Biotransformation [8]: Compound NOT metabolized; Bacterial Biotransformation [9]: Compound NOT metabolized; Bacterial Biotransformation [10]: Compound NOT metabolized; Bacterial Biotransformation [11]: Compound NOT metabolized; Bacterial Biotransformation [12]: Compound NOT metabolized; Bacterial Biotransformation [13]: Compound NOT metabolized
O=C(CCCN1CCC(O)(c2ccc(Cl)cc2)CC1)c1ccc(F)cc1 [HALOPERIDOL]	–	–	–	–	Compound NOT metabolized	–	–	–
C#C[C@]1(OC(C)=O)CC[C@H]2[C@@H]3CCC4=C/C(=N/O)CC[C@@H]4[C@H]3CC[C@@]21CC [NORGESTIMATE]	–	–	–	–	Compound NOT metabolized	Compound NOT metabolized	Compound NOT metabolized	–
Cc1ccc(NC(=O)c2ccc(CN3CCN(C)CC3)cc2)cc1Nc1nccc(-c2cccnc2)n1 [IMATINIB]	–	–	–	–	Compound NOT metabolized	Compound NOT metabolized	–	–
CC(CCc1ccccc1)NCC(O)c1ccc(O)c(C(N)=O)c1 (stereo unspecified) [LABETALOL]	–	–	–	–	–	–	Compound NOT metabolized	–
COc1ccc2cc([C@H](C)C(=O)O)ccc2c1 [NAPROXEN]	–	–	–	–	Compound NOT metabolized	Compound NOT metabolized	Compound NOT metabolized	–
CNCC[C@H](Oc1cccc2ccccc12)c1cccs1 [DULOXETINE]	–	–	–	–	Compound metabolized	Compound metabolized	–	–
CC(C)(C(=O)O)c1ccc(C(O)CCCN2CCC(C(O)(c3ccccc3)c3ccccc3)CC2)cc1 (stereo unspecified) [FEXOFENADINE]	–	–	–	–	Compound NOT metabolized	Compound NOT metabolized	–	–
N#Cc1ccc2c(c1)N(CCCN1CCC(O)CC1)c1ccccc1S2 [PERICIAZINE]	Compound NOT metabolized	Compound NOT metabolized	Compound NOT metabolized	Compound NOT metabolized	–	–	–	–
CC(=O)OCC(CCn1cnc2cnc(N)nc21)COC(C)=O [FAMCICLOVIR]	Compound NOT metabolized	Compound NOT metabolized	Compound metabolized	Compound metabolized	–	–	–	Bacterial Biotransformation [4]: Compound metabolized; Bacterial Biotransformation [5]: Compound metabolized; Bacterial Biotransformation [6]: Compound metabolized; Bacterial Biotransformation [7]: Compound metabolized; Bacterial Biotransformation [8]: Compound metabolized; Bacterial Biotransformation [9]: Compound metabolized; Bacterial Biotransformation [10]: Compound metabolized; Bacterial Biotransformation [11]: Compound NOT metabolized; Bacterial Biotransformation [12]: Compound metabolized; Bacterial Biotransformation [13]: Compound metabolized
COC(=O)Nc1nc2ccc(C(=O)c3ccccc3)cc2[nH]1 [MEBENDAZOLE]	–	–	–	–	Compound NOT metabolized	Compound metabolized	Compound NOT metabolized	–
C#C[C@]1(OC(C)=O)CC[C@H]2[C@@H]3CCC4=CC(=O)CC[C@@H]4[C@H]3CC[C@@]21C [NORETHINDRONE ACETATE]	Compound NOT metabolized	Compound NOT metabolized	Compound NOT metabolized	Compound NOT metabolized	–	–	–	Bacterial Biotransformation [4]: Compound metabolized; Bacterial Biotransformation [5]: Compound metabolized; Bacterial Biotransformation [6]: Compound metabolized; Bacterial Biotransformation [7]: Compound metabolized; Bacterial Biotransformation [8]: Compound metabolized; Bacterial Biotransformation [9]: Compound metabolized; Bacterial Biotransformation [10]: Compound metabolized; Bacterial Biotransformation [11]: Compound NOT metabolized; Bacterial Biotransformation [12]: Compound metabolized; Bacterial Biotransformation [13]: Compound metabolized
CN1[C@@H]2CC[C@H]1C[C@@H](OC(=O)C(CO)c1ccccc1)C2 (stereo partly specified) [ATROPINE]	–	–	–	–	Compound NOT metabolized	Compound NOT metabolized	Compound NOT metabolized	–
